Assay results taken from patent US20180185374A1, “INHIBITORS OF MTOR KINASE AS ANTI-VIRAL AGENTS” (THE TRUSTEES OF PRINCETON UNIVERSITY, priority 2009, published 2018).

How the values were obtained:
HCMV [1] = assay: HCMV multistep growth in serum-starved human fibroblasts, cell-free virus by TCID50; format: cell-based, human cytomegalovirus
HCMV [2] = assay: HCMV entry: cell-associated viral DNA at 2 hpi by real-time PCR; format: cell-based, human cytomegalovirus; details: 250 nM, 24 h pretreatment or after adsorption, 3 PFU/cell
Procedure: (§1) FIG. 2. […] Serum-starved confluent fibroblasts were infected with HCMV at a multiplicity of 3 PFU/cell. […] Control cultures received the vehicle in which Torin1 was dissolved (NT). At 2 hpi cells were harvested, and cell-associated viral DNA was quantified by real-time PCR analysis. Error bars represent the standard errors of the means from two independent experiments performed in duplicate. […] The level of IE1 was determined at 6 hpi by a Western blot assay using an IE1-specific monoclonal antibody. The image is representative of two independent experiments. […] The expression of a GFP marker gene present in the viral genome was monitored at 24 h after infection in the presence or absence of drug.
Determination of viral DNA and transcript accumulation in infected cells. The accumulation of viral DNA during HCMV infection was monitored by quantitative PCR (qPCR) as described previously (Terhune, et al. (2007) J. Virol. 81:3109-3123).
Briefly, primary human fibroblasts were infected with BADinGFP at a multiplicity of 0.05 PFU/cell. At the indicated times, cells were harvested by scraping them into medium and were stored as frozen cell pellets until analysis. Cell pellets were resuspended in 500 μl of a solution containing 400 mM NaCl, 10 mM Tris (pH 7.5), and 10 mM EDTA. […] For each sample, DNA was quantified by using a NanoDrop spectrophotometer (Thermo Scientific). […]

HCMV [3] = assay: GFP marker expression from viral genome, percentage of infected cells; format: cell-based, human cytomegalovirus; details: 24 hpi; 250 nM
Procedure: as §1

eIF4F complex = assay: m7GTP-Sepharose cap-binding assay, HCMV-infected fibroblasts; format: cell-based, human; details: rapamycin 20 nM, Torin1 250 nM
Procedure: FIG. 4. Rapamycin-resistant mTOR activity is required for 4EBP1 phosphorylation and eIF4F complex integrity during HCMV infection. Serum-starved confluent human fibroblasts were infected with HCMV at a multiplicity of 3 PFU/cell. […] (A) At 48 hpi the phosphorylation status of mTORC1 targets was assessed by Western blot assay by using antibodies to phosphorylated targets (4EBP1-PT^37/46 and rpS6-PS^235/6) and total proteins. Tubulin was assayed as a loading control. (B) Same as above (A) except that cells were harvested at the indicated times. (C and D) After mock infection (M) or infection with HCMV (WT) at a multiplicity of 3 PFU/cell, cultures were harvested at the indicated times. Equivalent amounts of protein from each sample were incubated with m^7GTP-Sepharose, and the isolated protein complexes were analyzed by Western blotting using the indicated antibodies to the eIF4F complex and 4EBP1. In all cases the results are representative of at least two independent experiments. lys, lysate.
The phosphorylation status of 4EBP1 regulates cap-dependent protein translation. Hypophosphorylated 4EBP1 binds to eIF4E and inhibits the formation of the eIF4F complex, while the phosphorylation of 4EBP1 inhibits its interaction with eIF4E. […]

MCMV = MCMV replication in MEFs, cell-free virus by TCID50; format: cell-based, murine cytomegalovirus; details: Torin1 250 nM
rpS6 = rpS6 phosphorylation in MCMV-infected MEFs, Western blot; format: cell-based, mouse; details: 48 hpi; rapamycin 20 nM, Torin1 250 nM, LY294002 20 μM
Procedure: FIG. 5. […] Fresh serum-free medium containing drugs was added every other day. At the indicated times, cell-free supernatants were harvested, and the amount of virus in the supernatant was quantified by the TCID50 method. Error bars represent the standard errors of the means form two independent experiments performed in duplicate. […] At 48 hpi the phosphorylation state of the indicated mTORC1 targets was analyzed by a Western blot assay by using antibodies to phosphorylated targets (4EBP1-PT^37/46 and rpS6-PS^235/6) and total proteins. The results are representative of three independent experiments.
The identification of the functional roles of proteins in the mTOR signaling pathway has been facilitated by the generation of knockout mouse strains lacking individual mTOR components. For example, the availability of murine embryonic fibroblasts (MEFs) lacking the essential mTORC2 component Rictor led to the definitive identification of mTORC2 as the kinase complex responsible for the complete activation of Akt. We used murine cytomegalovirus (MCMV) and several MEF lines deficient for mTOR signaling pathway components to test for a possible contribution of mTORC2 to rapamycin-resistant phosphorylation events. […] Also as observed for HCMV (FIG. 4A), MCMV infection induced mTORC1 activity, as measured by the increased phosphorylation of rpS6. […]

HSV-1 = HSV-1 replication in MEFs, TCID50; format: cell-based, herpes simplex virus type 1; details: 72 hpi
4EBP1 = 4EBP1 phosphorylation in HSV-1-infected MEFs, Western blot; format: cell-based, mouse; details: 3 PFU/cell, 8 hpi
cells = details: concentrations of up to 500 nM; previous reports; cited from earlier work

CCC(=O)N1CCN(c2ccc(-n3c(=O)ccc4cnc5ccc(-c6cnc7ccccc7c6)cc5c43)cc2C(F)(F)F)CC1 [Torin1]
reduction of HCMV yield (HCMV [1]; day 10, 0.05 PFU/cell, rapamycin 20 nM, Torin1 250 nM): about 160 fold | IC50 (HCMV [1]; read-out: 50% inhibitory concentration (IC50) for production of HCMV progeny, 8 days post infection): ~0.06 µM | level of cell-associated viral DNA (HCMV [2]): not influenced | percentage of cells expressing GFP marker (HCMV [3]): did not alter the percentage of cells | association of 4EBP1 with m7GTP-Sepharose (eIF4F complex): substantially increased association | association of eIF4G and eIF4A with the cap analog (eIF4F complex): reduced association | MCMV replication (MCMV; 4EBP1-null MEFs, rapamycin 20 nM, 6 days post infection): no longer capable of inhibiting | MCMV replication (MCMV; Akt1/Akt2-null MEFs): Torin-sensitive | MCMV replication (MCMV; Rictor-null MEFs, 6 days post infection): effectively inhibited | MCMV replication (MCMV; wild-type MEFs, 0.05 PFU/cell, rapamycin 20 nM): inhibited MCMV replication | phosphorylation of rpS6 in MCMV-infected MEFs (rpS6): completely inhibited | production of HSV-1 (HSV-1; 4EBP1-null MEFs): failed to inhibit | HSV-1 replication (HSV-1; MEFs, 0.05 PFU/cell, rapamycin 20 nM, Torin1 250 nM): inhibited both viruses | phosphorylation of 4EBP1 during HSV-1 infection (4EBP1): inhibited | cell killing (cells): does not kill cells
